Test results as given in patent US9855268B2, “Triazolo[4,5-d]pyrimidine derivatives” (Merck Patent GmbH, priority 2013, dated 2018).

Tests used:
[1] = molecular target: T1, GCN2 (Homo sapiens, UniProt Q9P2K8); test: GCN2 enzyme assay (TR-FRET Lanthascreen, GFP-eIF2alpha phosphorylation); format: biochemical; details: 10 μM ATP, 80 nM GFP-eIF2a, 30 nM GCN2
Outline: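 Phosphorylation of GFP-eIF2alpha (80 nM) by GCN2 run at room temperature with 10 μM ATP. After EDTA quench, product quantified by Lanthascreen TR-FRET (antibody–GFP complex, 340 nm excitation).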
Target sequence in this assay (Q9P2K8 whole entry, species assumed): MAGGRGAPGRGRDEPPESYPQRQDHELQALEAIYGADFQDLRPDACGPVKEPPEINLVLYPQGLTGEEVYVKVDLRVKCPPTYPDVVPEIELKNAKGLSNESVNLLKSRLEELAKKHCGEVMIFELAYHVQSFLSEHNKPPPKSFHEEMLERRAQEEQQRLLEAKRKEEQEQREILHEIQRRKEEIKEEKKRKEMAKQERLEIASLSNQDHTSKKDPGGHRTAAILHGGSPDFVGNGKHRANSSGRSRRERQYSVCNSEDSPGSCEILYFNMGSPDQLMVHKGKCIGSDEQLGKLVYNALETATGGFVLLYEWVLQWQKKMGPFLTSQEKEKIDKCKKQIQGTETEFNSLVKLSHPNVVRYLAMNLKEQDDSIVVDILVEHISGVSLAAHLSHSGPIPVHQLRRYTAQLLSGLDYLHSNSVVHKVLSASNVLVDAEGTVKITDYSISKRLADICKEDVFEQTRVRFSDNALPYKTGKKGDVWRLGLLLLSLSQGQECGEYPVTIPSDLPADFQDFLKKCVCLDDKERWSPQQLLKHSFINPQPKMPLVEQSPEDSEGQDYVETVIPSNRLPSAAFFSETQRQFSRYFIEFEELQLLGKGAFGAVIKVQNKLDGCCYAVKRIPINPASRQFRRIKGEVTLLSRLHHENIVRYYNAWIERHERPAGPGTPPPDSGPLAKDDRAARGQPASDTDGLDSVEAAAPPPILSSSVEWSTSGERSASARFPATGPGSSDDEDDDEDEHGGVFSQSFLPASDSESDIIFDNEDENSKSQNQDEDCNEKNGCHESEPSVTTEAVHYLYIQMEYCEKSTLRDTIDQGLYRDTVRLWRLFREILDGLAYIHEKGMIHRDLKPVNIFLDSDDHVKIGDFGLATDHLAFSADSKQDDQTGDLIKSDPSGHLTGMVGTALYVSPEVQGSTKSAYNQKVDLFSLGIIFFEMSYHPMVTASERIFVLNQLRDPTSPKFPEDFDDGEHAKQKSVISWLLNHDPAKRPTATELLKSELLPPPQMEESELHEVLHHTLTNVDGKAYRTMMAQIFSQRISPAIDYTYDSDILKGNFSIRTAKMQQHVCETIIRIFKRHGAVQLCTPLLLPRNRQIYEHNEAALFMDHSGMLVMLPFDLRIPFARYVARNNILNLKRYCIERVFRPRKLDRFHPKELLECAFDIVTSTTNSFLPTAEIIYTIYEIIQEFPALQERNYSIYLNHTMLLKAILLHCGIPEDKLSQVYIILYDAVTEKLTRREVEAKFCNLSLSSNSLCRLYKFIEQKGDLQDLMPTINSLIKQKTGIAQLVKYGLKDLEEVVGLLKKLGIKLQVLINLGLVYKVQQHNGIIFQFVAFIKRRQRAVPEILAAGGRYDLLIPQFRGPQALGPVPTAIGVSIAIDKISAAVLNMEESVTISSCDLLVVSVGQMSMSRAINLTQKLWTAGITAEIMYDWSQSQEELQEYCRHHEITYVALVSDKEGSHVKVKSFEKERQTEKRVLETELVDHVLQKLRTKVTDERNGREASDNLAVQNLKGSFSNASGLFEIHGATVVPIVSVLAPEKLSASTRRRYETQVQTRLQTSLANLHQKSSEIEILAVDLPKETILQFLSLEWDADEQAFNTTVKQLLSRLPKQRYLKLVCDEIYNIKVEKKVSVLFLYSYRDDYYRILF

[2] = molecular target: GSK3α(h) (Homo sapiens, UniProt P49840); test: GSK3α radiometric kinase assay (33P-ATP, phospho GS2 peptide); format: biochemical; details: read-out: IC50 GSK3α (enzyme assay)
Outline: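 Human GSK3α incubated with 20 μM phospho-GS2 peptide in 8 mM MOPS pH 7,0, 10 mM Mg-acetate and [γ-33P]ATP (concentration as required), started with MgATP. After 40 minutes at room temperature, stopped with phosphoric acid; 33P incorporation measured by filtermat spotting and scintillation counting.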

[3] = molecular target: GSK3β(h) (Homo sapiens, UniProt P49841); test: GSK3β radiometric kinase assay (33P-ATP, phospho GS2 peptide); format: biochemical; details: read-out: IC50 GSK3β (enzyme assay)
Outline: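 Human GSK3β in 8 mM MOPS pH 7,0, 0,2 mM EDTA, 10 mM Mg-acetate with 20 μM phospho-GS2 peptide; the reaction was started with [γ-33P]MgATP at an unstated level. After 40 min at room temperature it was stopped with phosphoric acid, and the peptide was captured on P30 filtermat for scintillation counting.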

[4] = molecular target: T1, GCN2; test: Cellular assay of GCN2 activity (phospho-eIF2alpha immunocytochemistry after tryptophanol); format: cell-based; parameters: endogenous in cells; host or cells: U2OS; details: Human U2OS cells, 2 h compound, 600 μM tryptophanol 30 min
Outline: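 Readout in human U2OS cells: compound pretreatment 2 h, then tryptophanol (600 μM final) for 30 min to trigger GCN2 signalling. Fixed, permeabilised cells quantified by immunocytochemistry for phosphorylation, normalised to DMSO controls as % effect; IC50 from concentration-response.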
Target sequence in this assay (Q9P2K8 whole entry): as the sequence (Q9P2K8 whole entry, species assumed) above

Sequence of GSK3α(h) (P49840 whole entry): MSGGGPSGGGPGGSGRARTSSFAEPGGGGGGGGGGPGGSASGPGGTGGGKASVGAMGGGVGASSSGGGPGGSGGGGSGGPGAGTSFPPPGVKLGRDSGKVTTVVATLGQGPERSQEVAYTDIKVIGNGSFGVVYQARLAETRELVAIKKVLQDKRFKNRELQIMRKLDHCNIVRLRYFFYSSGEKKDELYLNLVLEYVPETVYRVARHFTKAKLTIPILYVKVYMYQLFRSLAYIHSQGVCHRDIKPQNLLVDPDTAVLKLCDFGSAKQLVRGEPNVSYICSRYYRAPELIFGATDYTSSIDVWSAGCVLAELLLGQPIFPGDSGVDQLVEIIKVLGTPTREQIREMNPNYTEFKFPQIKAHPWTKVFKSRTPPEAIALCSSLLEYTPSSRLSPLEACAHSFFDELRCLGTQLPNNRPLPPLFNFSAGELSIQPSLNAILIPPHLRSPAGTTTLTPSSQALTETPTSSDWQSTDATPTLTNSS
Sequence of GSK3β(h) (P49841 whole entry): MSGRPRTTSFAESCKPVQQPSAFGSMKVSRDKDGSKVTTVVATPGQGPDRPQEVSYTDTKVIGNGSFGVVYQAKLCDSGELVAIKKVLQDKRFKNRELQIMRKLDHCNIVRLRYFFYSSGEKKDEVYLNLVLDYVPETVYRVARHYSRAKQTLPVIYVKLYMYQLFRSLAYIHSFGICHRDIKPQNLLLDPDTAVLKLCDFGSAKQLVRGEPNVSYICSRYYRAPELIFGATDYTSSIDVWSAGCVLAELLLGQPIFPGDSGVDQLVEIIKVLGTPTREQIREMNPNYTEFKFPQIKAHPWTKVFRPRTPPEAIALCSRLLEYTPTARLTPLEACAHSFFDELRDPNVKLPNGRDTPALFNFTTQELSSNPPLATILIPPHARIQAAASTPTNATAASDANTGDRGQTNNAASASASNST

Row | SMILES | IC50 [1] [µM] | IC50 [2] [µM] | IC50 [3] [µM] | IC50 [4] [µM]
1 | CCOCCn1cc(-c2ccc(-n3nnc4cnc(N[C@@H]5CC[C@@H](C(=O)NCCO)C5)nc43)cc2)cn1 [A226, (1R,3R)-3-(3-{4-[1-(2-ethoxy-ethyl)-1H-pyrazol-4-yl]-phenyl}-3H-[1,2,3]triazolo[4,5-d]pyrimidin-5-ylamino)-cyclopentanecarboxylic acid (2-hydroxy-ethyl)-amide] | < 1 | < 1 | < 1 | 1 to 5
2 | Cc1nc(CCn2cc(-c3ccc(-n4nnc5cnc(N[C@@H]6CC[C@@H](C(N)=O)C6)nc54)cc3)cn2)no1 [A220, (1R,3R)-3-[3-(4-{1-[2-(5-methyl-[1,2,4]oxadiazol-3-yl)-ethyl]-1H-pyrazol-4-yl}-phenyl)-3H-[1,2,3]triazolo[4,5-d]pyrimidin-5-ylamino]-cyclopentanecarboxylic acid amide] | < 1 | < 1 | < 1 | < 1
3 | NC(=O)[C@@H]1CC[C@@H](Nc2ncc3nnn(-c4ccc(OCCN5CCOCC5)cc4)c3n2)C1 [A277, (1R,3R)-3-{3-[4-(2-morpholin-4-yl-ethoxy)-phenyl]-3H-[1,2,3]triazolo[4,5-d]pyrimidin-5-ylamino}-cyclopentanecarboxylic acid amide] | < 1 | < 1 | < 1 | 5 to 10
4 | COc1ccc(-n2nnc3cnc(N[C@@H]4CC[C@@H](C(N)=O)C4)nc32)cc1F [A152, (1R,3R)-3-[3-(3-fluoro-4-methoxy-phenyl)-3H-[1,2,3]triazolo[4,5-d]pyrimidin-5-ylamino]-cyclopentanecarboxylic acid amide] | < 1 | < 1 | < 1 | 1 to 5
5 | Cc1ccc2cc(-n3nnc4cnc(N[C@@H]5CC[C@@H](C(=O)NCCO)C5)nc43)ccc2n1 [A245, (1R,3R)-3-[3-(2-methyl-quinolin-6-yl)-3H-[1,2,3]triazolo[4,5-d]pyrimidin-5-ylamino]-cyclopentanecarboxylic acid (2-hydroxy-ethyl)-amide] | < 1 | < 1 | < 1 | < 1
6 | COCCn1cc(-c2ccc(-n3nnc4cnc(N[C@@H]5CC[C@@H](O)C5)nc43)cc2F)cn1 [A228, (1R,3R)-3-(3-{3-fluoro-4-[1-(2-methoxy-ethyl)-1H-pyrazol-4-yl]-phenyl}-3H-[1,2,3]triazolo[4,5-d]pyrimidin-5-ylamino)-cyclopentanol] | < 1 | < 1 | < 1 | 5 to 10
7 | NC(=O)[C@@H]1CC[C@@H](Nc2ncc3nnn(-c4ccc(N5CCOCC5)c(F)c4)c3n2)C1 [A158, (1R,3R)-3-[3-(3-fluoro-4-morpholin-4-yl-phenyl)-3H-[1,2,3]triazolo[4,5-d]-pyrimidin-5-ylamino]-cyclopentanecarboxylic acid amide] | < 1 | < 1 | < 1 | 5 to 10
8 | CCOCCn1cc(-c2ccc(-n3nnc4cnc(N[C@@H]5CC[C@@H](C(N)=O)C5)nc43)cc2F)cn1 [A223, (1R,3R)-3-(3-{4-[1-(2-ethoxy-ethyl)-1H-pyrazol-4-yl]-3-fluoro-phenyl}-3H-[1,2,3]triazolo[4,5-d]pyrimidin-5-ylamino)-cyclopentanecarboxylic acid amide] | < 1 | < 1 | < 1 | < 1

The remaining lines, values ahead:

Row | IC50 [1] [µM] | IC50 [2] [µM] | IC50 [3] [µM] | IC50 [4] [µM] | SMILES
9 | < 1 | < 1 | < 1 | 1 to 5 | CCOc1ccc(-n2nnc3cnc(N[C@@H]4CC[C@@H](O)C4)nc32)cc1 (relative stereo) [A207, (trans)-3-[3-(4-ethoxy-phenyl)-3H-[1,2,3]triazolo[4,5-d]pyrimidin-5-ylamino]-cyclopentanol]
10 | < 1 | < 1 | < 1 | 5 to 10 | COCCn1cc(-c2ccc(-n3nnc4cnc(N[C@@H]5CC[C@@H](C(N)=O)C5)nc43)cn2)cn1 [A224, (1R,3R)-3-(3-{6-[1-(2-methoxy-ethyl)-1H-pyrazol-4-yl]-pyridin-3-yl}-3H-[1,2,3]triazolo[4,5-d]pyrimidin-5-ylamino)-cyclopentanecarboxylic acid amide]
11 | < 1 | < 1 | < 1 | 1 to 5 | CCOc1ccc(-n2nnc3cnc(N[C@@H]4CC[C@@H](C(=O)NN)C4)nc32)cc1 [A282, (1R,3R)-3-[3-(4-ethoxy-phenyl)-3H-[1,2,3]triazolo[4,5-d]pyrimidin-5-ylamino]-cyclopentanecarboxylic acid hydrazide]
12 | < 1 | < 1 | < 1 | 5 to 10 | COc1ccc(-n2nnc3cnc(N[C@@H]4CC[C@@H](C(N)=O)C4)nc32)cc1C [A162, (1R,3R)-3-[3-(4-methoxy-3-methyl-phenyl)-3H-[1,2,3]triazolo[4,5-d]pyrimidin-5-ylamino]-cyclopentanecarboxylic acid amide]
13 | < 1 | < 1 | < 1 | 1 to 5 | COCCNC(=O)[C@@H]1CC[C@@H](Nc2ncc3nnn(-c4ccc5nc(C)ccc5c4)c3n2)C1 [A246, (1R,3R)-3-[3-(2-methyl-quinolin-6-yl)-3H-[1,2,3]triazolo[4,5-d]pyrimidin-5-ylamino]-cyclopentanecarboxylic acid (2-methoxy-ethyl)-amide]
